One may read the IC50 as the concentration needed to halve the response being measured.

In patent publication US8779197B2, “Aryl amides useful as inhibitors of voltage-gated sodium channels” (Vertex Pharmaceuticals Incorporated, priority 2007, dated 2014) one finds IC50 data, which are given here for 19 compounds.

The target in one test is NaV 1.7 channel (Homo sapiens, UniProt Q15858). In words: Activity against NaV 1.7 channel (optical membrane potential assay). The format is cell-based. As to the method:
(§1) Compounds of the invention are useful as antagonists of voltage-gated sodium ion channels. Antagonist properties of test compounds were assessed as follows. Cells expressing the NaV of interest were placed into microtiter plates. After an incubation period, the cells were stained with fluorescent dyes sensitive to the transmembrane potential. The test compounds were added to the microtiter plate. The cells were stimulated with either a chemical or electrical means to evoke a NaV dependent membrane potential change from unblocked channels, which was detected and measured with trans-membrane potential-sensitive dyes. Antagonists were detected as a decreased membrane potential response to the stimulus. The optical membrane potential assay utilized voltage-sensitive FRET sensors described by Gonzalez and Tsien (See, Gonzalez, J. E. and R. Y. Tsien (1995) “Voltage sensing by fluorescence resonance energy transfer in single cells” Biophys J 69(4): 1272-80, and Gonzalez, J. E. and R. Y. Tsien (1997) “Improved indicators of cell membrane potential that use fluorescence resonance energy transfer” Chem Biol 4(4): 269-77) in combination with instrumentation for measuring fluorescence changes such as the Voltage/Ion Probe Reader (VIPR®) (See, Gonzalez, J. E., K. Oades, et al. (1999) “Cell-based assays and instrumentation for screening ion-channel targets” Drug Discov Today 4(9): 431-439).
(§2) C) VIPR® Optical Membrane Potential Assay Method with Electrical Stimulation
(§3) The following is an example of how NaV1.3 inhibition activity is measured using the optical membrane potential method#2. Other subtypes are performed in an analogous mode in a cell line expressing the NaV of interest.
(§4) 10 mM CC2-DMPE is vortexed with an equivalent volume of 10% pluronic, followed by vortexing in required amount of HBSS containing 10 mM HEPES. Each cell plate will require 5 mL of 2×CC2-DMPE. 50 µL of 2×CC2-DMPE is to wells containing washed cells, resulting in a 10 μM final staining concentration. The cells are stained for 30 minutes in the dark at RT.
(§5) The required amount of 10 mM DISBAC2(3) is added to a 50 ml conical tube and mixed with 1 μL 10% pluronic for each mL of solution to be made and vortexed together. Then HBSS/HEPES is added to make up 2× solution. Finally, the ABSC1 is added.
(§6) The 2×DiSBAC2(3) solution can be used to solvate compound plates. Note that compound plates are made at 2× drug concentration. Wash stained plate again, leaving residual volume of 50 μL. Add 50 uL/well of the 2×DiSBAC2(3) w/ABSC1. Stain for 30 minutes in the dark at RT.
(§7) The electrical stimulation instrument and methods of use are described in ION Channel Assay Methods PCT/US01/21652, herein incorporated by reference. The instrument comprises a microtiter plate handler, an optical system for exciting the coumarin dye while simultaneously recording the coumarin and oxonol emissions, a waveform generator, a current- or voltage-controlled amplifier, and a device for inserting electrodes in well. Under integrated computer control, this instrument passes user-programmed electrical stimulus protocols to cells within the wells of the microtiter plate.
(§8) Assay Protocol • 1. Insert or use electrodes into each well to be assayed. • 2. Use the current-controlled amplifier to deliver stimulation wave pulses for 3 s. Two seconds of pre-stimulus recording are performed to obtain the un-stimulated intensities. Five seconds of post-stimulation recording are performed to examine the relaxation to the resting state.
(§9) Data are analyzed and reported as normalized ratios of background-subtracted emission intensities measured in the 460 nm and 580 nm channels. Background intensities are then subtracted from each assay channel. Background intensities are obtained by measuring the emission intensities during the same time periods from identically treated assay wells in which there are no cells. The response as a function of time is then reported as the ratios obtained using the following formula: […]

A further test deals with NaV1.8 (Homo sapiens, UniProt Q9Y5Y9). Put plainly: Activity against NaV 1.8 channel (optical membrane potential assay). It counts as cell-based. Here is the method: as §1, §2, §3, §4, §5, §6, §7, §8, §9
Test [1] deals with T1, NaV1.3 (Homo sapiens, UniProt Q9NY46). Put plainly: Activity against NaV 1.3 channel (optical membrane potential assay). The format is cell-based. Set-up: expressed in transfected cells; host or cells: HEK293. As to the method: as §1, §2, §3
HEK293 cells stably expressing NaV1.3 are plated into 96-well microtiter plates. After an appropriate incubation period, the cells are stained with the voltage sensitive dyes CC2-DMPE/DiSBAC2(3) as follows.
as §4, §5, §6, §7, §8
Data are analyzed and reported as normalized ratios of background-subtracted emission intensities measured in the 460 nm and 580 nm channels. Background intensities are then subtracted from each assay channel. […]

The next test deals with NaV1.9 (Homo sapiens, UniProt Q9UI33). The conditions noted are these: read-out: TTX IC50; cited from earlier work.
Another test addresses NaV1.2 (Homo sapiens, UniProt Q99250). Conditions: read-out: TTX IC50; cited from earlier work.
The next test deals with NaV1.1 (Homo sapiens, UniProt P35498). The conditions noted are these: read-out: TTX IC50; cited from earlier work.
A further test has as its target NaV1.6 (Homo sapiens, UniProt Q9UQD0). Conditions: read-out: TTX IC50; cited from earlier work.
In test [2] the target is T1, NaV1.3. Conditions: read-out: TTX IC50; cited from earlier work.

Like-named read-outs stand apart in the source and are kept apart here. Where only a bound is given, the exact number is not on record here.

NaV1.8, sequence (Q9Y5Y9 whole entry): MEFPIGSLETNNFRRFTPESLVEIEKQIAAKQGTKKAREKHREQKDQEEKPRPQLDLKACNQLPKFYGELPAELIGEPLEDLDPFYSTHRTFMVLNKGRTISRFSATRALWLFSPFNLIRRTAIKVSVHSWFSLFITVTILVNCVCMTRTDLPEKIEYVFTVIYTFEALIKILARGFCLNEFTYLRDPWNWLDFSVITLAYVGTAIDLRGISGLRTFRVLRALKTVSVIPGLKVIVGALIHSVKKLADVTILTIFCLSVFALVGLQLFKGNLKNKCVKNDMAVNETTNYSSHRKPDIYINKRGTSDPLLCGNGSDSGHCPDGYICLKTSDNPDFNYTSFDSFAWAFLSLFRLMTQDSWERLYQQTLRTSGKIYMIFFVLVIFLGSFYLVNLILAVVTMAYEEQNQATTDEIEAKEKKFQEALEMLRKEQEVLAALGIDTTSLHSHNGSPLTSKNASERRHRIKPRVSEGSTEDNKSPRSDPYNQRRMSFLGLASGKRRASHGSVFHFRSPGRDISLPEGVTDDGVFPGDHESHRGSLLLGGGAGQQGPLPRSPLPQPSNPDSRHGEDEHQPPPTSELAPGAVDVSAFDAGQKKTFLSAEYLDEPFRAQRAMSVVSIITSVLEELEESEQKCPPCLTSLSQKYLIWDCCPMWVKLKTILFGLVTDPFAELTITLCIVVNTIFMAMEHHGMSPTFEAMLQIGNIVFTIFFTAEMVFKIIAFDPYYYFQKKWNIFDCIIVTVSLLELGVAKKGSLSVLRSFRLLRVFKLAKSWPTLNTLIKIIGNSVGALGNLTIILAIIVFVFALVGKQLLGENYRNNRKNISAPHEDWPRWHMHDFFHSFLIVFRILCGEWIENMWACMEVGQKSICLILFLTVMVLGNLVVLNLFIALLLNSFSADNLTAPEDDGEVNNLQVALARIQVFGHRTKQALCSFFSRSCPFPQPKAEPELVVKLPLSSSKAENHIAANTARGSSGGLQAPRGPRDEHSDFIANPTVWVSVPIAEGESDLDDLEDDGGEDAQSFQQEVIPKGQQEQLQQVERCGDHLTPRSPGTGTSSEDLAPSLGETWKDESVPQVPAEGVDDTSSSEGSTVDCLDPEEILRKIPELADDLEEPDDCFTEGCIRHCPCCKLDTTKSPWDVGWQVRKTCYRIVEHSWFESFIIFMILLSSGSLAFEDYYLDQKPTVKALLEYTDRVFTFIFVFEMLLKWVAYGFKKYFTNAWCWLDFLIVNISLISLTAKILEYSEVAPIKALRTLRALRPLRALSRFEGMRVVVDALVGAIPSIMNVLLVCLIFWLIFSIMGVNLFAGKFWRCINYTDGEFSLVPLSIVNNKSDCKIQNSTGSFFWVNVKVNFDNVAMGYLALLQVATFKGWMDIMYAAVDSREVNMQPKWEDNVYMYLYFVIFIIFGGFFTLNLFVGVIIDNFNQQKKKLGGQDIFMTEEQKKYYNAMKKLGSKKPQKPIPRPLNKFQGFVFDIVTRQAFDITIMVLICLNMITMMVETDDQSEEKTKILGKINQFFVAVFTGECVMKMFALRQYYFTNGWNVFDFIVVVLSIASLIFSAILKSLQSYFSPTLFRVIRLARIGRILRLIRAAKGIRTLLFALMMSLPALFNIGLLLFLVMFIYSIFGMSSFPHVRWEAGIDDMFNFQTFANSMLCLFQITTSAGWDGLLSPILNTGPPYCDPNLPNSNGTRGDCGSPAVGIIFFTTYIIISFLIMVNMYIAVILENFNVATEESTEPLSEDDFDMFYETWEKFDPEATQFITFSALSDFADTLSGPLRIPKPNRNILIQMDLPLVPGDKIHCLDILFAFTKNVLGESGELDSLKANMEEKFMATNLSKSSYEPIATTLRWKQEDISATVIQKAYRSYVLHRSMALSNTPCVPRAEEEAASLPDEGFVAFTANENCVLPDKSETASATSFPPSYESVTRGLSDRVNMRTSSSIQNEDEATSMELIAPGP
NaV 1.7 channel, sequence (Q15858 whole entry): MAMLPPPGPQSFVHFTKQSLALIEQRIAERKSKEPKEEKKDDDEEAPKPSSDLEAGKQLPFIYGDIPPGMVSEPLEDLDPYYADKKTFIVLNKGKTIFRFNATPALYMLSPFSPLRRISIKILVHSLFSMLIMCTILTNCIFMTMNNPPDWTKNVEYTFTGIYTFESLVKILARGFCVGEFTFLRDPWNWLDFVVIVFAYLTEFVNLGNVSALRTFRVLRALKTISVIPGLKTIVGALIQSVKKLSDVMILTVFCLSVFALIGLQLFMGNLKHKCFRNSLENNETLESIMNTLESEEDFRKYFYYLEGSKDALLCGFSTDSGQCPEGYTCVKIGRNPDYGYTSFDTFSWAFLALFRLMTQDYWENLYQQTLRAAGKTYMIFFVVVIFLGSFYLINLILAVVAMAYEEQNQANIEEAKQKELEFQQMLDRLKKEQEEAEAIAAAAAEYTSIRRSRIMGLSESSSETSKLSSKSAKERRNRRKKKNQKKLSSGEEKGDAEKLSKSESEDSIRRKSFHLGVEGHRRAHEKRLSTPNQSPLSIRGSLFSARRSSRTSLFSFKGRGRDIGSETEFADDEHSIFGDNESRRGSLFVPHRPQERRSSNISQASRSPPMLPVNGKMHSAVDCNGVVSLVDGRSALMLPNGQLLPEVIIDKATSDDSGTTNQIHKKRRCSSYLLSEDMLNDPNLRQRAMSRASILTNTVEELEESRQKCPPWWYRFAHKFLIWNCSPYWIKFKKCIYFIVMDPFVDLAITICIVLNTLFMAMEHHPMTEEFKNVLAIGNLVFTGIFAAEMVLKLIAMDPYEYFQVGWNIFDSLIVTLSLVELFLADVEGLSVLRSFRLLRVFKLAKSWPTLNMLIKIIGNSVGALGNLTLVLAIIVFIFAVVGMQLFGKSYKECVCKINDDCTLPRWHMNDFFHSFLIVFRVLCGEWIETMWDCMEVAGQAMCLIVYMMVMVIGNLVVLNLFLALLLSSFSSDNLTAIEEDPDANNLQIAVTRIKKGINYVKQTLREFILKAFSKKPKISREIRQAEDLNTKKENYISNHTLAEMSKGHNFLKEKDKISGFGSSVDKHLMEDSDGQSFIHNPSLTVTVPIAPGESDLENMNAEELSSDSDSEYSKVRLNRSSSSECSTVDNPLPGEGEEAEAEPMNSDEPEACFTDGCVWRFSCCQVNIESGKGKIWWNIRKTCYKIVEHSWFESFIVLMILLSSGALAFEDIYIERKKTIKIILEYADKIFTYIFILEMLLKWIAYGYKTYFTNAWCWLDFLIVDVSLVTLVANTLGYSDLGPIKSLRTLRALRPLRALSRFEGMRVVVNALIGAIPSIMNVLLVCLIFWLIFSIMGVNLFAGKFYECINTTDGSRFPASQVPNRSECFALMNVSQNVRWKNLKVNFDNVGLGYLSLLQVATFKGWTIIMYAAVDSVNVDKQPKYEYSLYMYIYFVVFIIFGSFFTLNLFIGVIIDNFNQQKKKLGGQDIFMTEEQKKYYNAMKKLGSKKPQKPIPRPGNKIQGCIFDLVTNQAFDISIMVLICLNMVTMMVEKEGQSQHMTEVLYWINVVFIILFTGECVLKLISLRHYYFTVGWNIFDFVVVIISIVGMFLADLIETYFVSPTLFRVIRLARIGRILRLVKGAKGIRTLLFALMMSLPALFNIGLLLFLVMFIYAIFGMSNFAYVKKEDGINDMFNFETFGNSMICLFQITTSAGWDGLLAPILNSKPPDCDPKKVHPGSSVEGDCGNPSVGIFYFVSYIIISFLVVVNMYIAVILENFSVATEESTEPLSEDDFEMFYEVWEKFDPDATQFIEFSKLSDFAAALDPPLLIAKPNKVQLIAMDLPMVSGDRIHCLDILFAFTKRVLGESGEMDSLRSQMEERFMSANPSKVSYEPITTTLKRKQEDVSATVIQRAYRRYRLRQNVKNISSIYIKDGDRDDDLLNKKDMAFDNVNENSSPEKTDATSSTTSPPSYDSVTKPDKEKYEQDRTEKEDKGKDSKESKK

As to `CC(C)(C)c1ccc(C(=O)Nc2cccc(C(N)=O)c2)c(Oc2ccc(F)cc2Cl)c1` [Compound 8], the IC50 on NaV 1.7 channel was 2 to 10 µM; at NaV1.8, less than 2000 nM; on NaV1.3 [1], 10 to 20 µM.

Regarding `CC(C)(C)c1ccc(C(=O)Nc2cccc(S(C)(=O)=O)c2)c(Oc2ncccc2C(F)(F)F)c1` [Compound 18], the IC50 on NaV 1.7 channel was 2 to 10 µM; on NaV1.8 it was less than 2000 nM; at NaV1.3 [1] it was 10 to 20 µM.

`CC(C)(C)c1ccc(C(=O)Nc2cccc(NS(C)(=O)=O)c2)c(Oc2ccc(F)cc2Cl)c1` [Compound 10]: the IC50 on NaV 1.7 channel is 2 to 10 µM; at NaV1.8, 2000 to 10000 nM; on NaV1.3 [1], 10 to 20 µM.

Regarding `NC1=N[C@H](O)[C@H]2[C@H]3O[C@]4(O)O[C@@H]([C@@H](O)[C@@]2(N1)[C@@H]4O)[C@]3(O)CO` [TTX, tetrodotoxin], the IC50 at NaV1.9 was 1000 nM; at NaV1.2 it was 10 nM; at NaV1.1 it was 10 nM; on NaV1.6, 6 nM; on NaV1.3 [2], 15 nM.

`CC(C)(C)c1ccc(C(=O)Nc2cccc(S(C)(=O)=O)c2)c(Oc2cccc(C(F)(F)F)n2)c1` [Compound 17]: the IC50 on NaV 1.7 channel was 10 to 20 µM; on NaV1.8, less than 2000 nM; at NaV1.3 [1] it was 10 to 20 µM.

As for `NC(=O)c1cccc(NC(=O)c2ccccc2Cc2ccccc2)c1` [Compound 1], on NaV1.3 [1], the IC50 is more than 20 µM.

With `CN(C(=O)c1ccc(C(C)(C)C)cc1Oc1ccc(F)cc1Cl)c1cccc(S(C)(=O)=O)c1` [Compound 19, 4-tert-Butyl-2-(2-chloro-4-fluorophenoxy)-N-methyl-N-(3-(methylsulfonyl)phenyl)benzamide], the IC50 fell in the range of 2 to 10 µM on NaV 1.7 channel, 2000 to 10000 nM at NaV1.8 and 2 to 10 µM at NaV1.3 [1].

Turning to `NC(=O)c1cccc(NC(=O)c2ccccc2Nc2cccc(F)c2)c1` [Compound 2], the half-inhibitory concentration (IC50) at NaV1.3 [1] is more than 20 µM.

On to `CC(C)(C)c1ccc(C(=O)Nc2cccc(C(N)=O)c2)c(Oc2ccc(C(F)(F)F)nc2)c1` [Compound 7], for which the IC50 at NaV 1.7 channel was 2 to 10 µM; at NaV1.8 it was less than 2000 nM; at NaV1.3 [1], 10 to 20 µM.

Take `CNC(=O)c1cccc(NC(=O)c2ccc(C(C)(C)C)cc2Oc2ccc(F)cc2Cl)c1` [Compound 11]: the 50% inhibitory concentration (IC50) at NaV 1.7 channel is 2 to 10 µM; at NaV1.8, less than 2000 nM; at NaV1.3 [1], 2 to 10 µM.

Turning to `Cc1ncccc1Oc1cc(C(C)(C)C)ccc1C(=O)Nc1cccc(C(N)=O)c1` [Compound 6], the values for the IC50 on NaV 1.7 channel, on NaV1.8 and at NaV1.3 [1] were more than 20 µM, less than 2000 nM and more than 20 µM, respectively.

Consider `CC(C)(C)c1ccc(C(=O)Nc2cccc(S(C)(=O)=O)c2)c(Oc2cnccc2C(F)(F)F)c1` [Compound 15], for which the figures for the IC50 on NaV 1.7 channel, on NaV1.8 and at NaV1.3 [1] were 2 to 10 µM, less than 2000 nM and 2 to 10 µM, respectively.

In the case of `NC(=O)c1cccc(NC(=O)c2ccccc2Oc2ccc(F)cc2)c1` [Compound 3, N-(3-carbamoylphenyl)-2-(4-fluorophenoxy)benzamide], the half-inhibitory concentration (IC50) is less than 2000 nM at NaV1.8 and 10 to 20 µM on NaV1.3 [1].

For the compound `Cc1ncccc1Oc1cc(C(C)(C)C)ccc1C(=O)Nc1cccc(S(C)(=O)=O)c1` [Compound 12], the 50% inhibitory concentration (IC50) was 2 to 10 µM on NaV 1.7 channel, less than 2000 nM at NaV1.8 and more than 20 µM on NaV1.3 [1].

For `CC(C)(C)c1ccc(C(=O)Nc2cccc(S(C)(=O)=O)c2)c(Oc2cccnc2C(F)(F)F)c1` [Compound 16], the IC50 on NaV 1.7 channel is 2 to 10 µM; at NaV1.8 it was less than 2000 nM; on NaV1.3 [1], 10 to 20 µM.

As for `NC(=O)c1cccc(NC(=O)c2ccccc2Oc2ccc(Br)cc2)c1` [Compound 4], the IC50 was less than 2000 nM on NaV1.8 and 2 to 10 µM on NaV1.3 [1].

For the compound `NC(=O)c1cccc(NC(=O)c2ccccc2Oc2ccc(C(F)(F)F)cc2)c1` [Compound 5], the IC50 at NaV1.3 [1] lay within 10 to 20 µM.

Take `CC(C)(C)c1ccc(C(=O)Nc2cccc(S(C)(=O)=O)c2)c(Oc2ncccc2C#N)c1` [Compound 14]: the IC50 at NaV 1.7 channel was less than 2 µM; at NaV1.8 it was less than 2000 nM; on NaV1.3 [1], 2 to 10 µM.

`CC(C)(C)c1ccc(C(=O)Nc2cccc(S(C)(=O)=O)c2)c(Oc2ccc(F)cc2Cl)c1` [Compound 9]: the IC50 at NaV 1.7 channel is 2 to 10 µM; on NaV1.8, less than 2000 nM; on NaV1.3 [1], 10 to 20 µM.
